From patent US20050096360A1, “Inhibitors of semicarbazide-sensitive amine oxidase (SSAO) and VAP-1 mediated adhesion useful for treatment of diseases” (priority 2003, published 2005) come the findings set out here.

Counter-ions that a name gives are not always drawn.

In assay [1] the test system is EAE in C57BL/6 mice. Nature of the assay: Experimental autoimmune encephalomyelitis (EAE), MOG 35-55. It is filed as in vivo. The note with it: separate experiment, same protocol, FIG. 3. Here is the method: SSAO/VAP-1 is expressed on the endothelium of inflamed tissues/organs including brain and spinal cord. Its ability to support lymphocyte transendothelial migration may be an important systemic function of SSAO/VAP-1 in inflammatory diseases such as multiple sclerosis and Alzheimer's disease. An analysis of the use of SSAO inhibitors to treat inflammatory disease of the central nervous system (CNS) was performed through the use of an experimental autoimmune encephalomyelitis model (EAE) in C57BL/6 mice. EAE in rodents is a well-characterized and reproducible animal model of multiple sclerosis in human (Benson J. M. et al. (2000) J. Clin. Invest. 106:1031). Multiple sclerosis is a chronic immune-mediated disease of the CNS characterized by pachy perivenular inflammatory infiltrates in areas of demyelination and axonal loss. As an animal model, EAE can be induced in mice by immunization with encephalitogenic myelin antigens in the presence of adjuvant. The pathogenesis of EAE comprises presentation of myelin antigens to T cells, migration of activated T cells to the CNS, and development of inflammation and/or demyelination upon recognition of the same antigens.
Thirty female C57BL/6 mice were immunized subcutaneously (s.c). with myelin oligodendrocyte glycoprotein 35-55 (MOG peptide 35-55) in Complete Freund Adjuvant (CFA) on day 0, followed by i.p. injections of pertussis toxin (one pertussis toxin injection on day 0, a second pertussis toxin injection on day 2). Groups of 10 mice received either the allylamine compound mofegiline (AA, 10 mg/kg/dose, twice daily for 18 consecutive days), methotrexate (2.5 mg/kg/day, every other day (Mon., Weds., Fri.) till day 18) or vehicle control (twice/day for 18 consecutive days) all-starting from one day after the immunization and all administered i.p. Then animals were monitored for body weight, signs of paralysis and death according to a 0-5 scale of scoring system as follows: 1=limp tail or waddling gait with tail tonicity; 2=waddling gait with limp tail (ataxia); 2.5=ataxia with partial limb paralysis; 3=full paralysis of one limb; 3.5=full paralysis of one limb with partial paralysis of second limb; 4=full paralysis of two limbs; 4.5=moribund; 5=death. Results are shown in FIG. 2A, FIG. 2B, and FIG. 2C. […] (p=0.04 by repeated measure analysis to assess the treatment effect. Proper polynomial transformation, with the spacing corresponding to the collection days, was applied to test the time effect). Statistically significant differences in diseases severity between the AA and vehicle-treated groups, continued even after stopping compound administration and were observed until the end of the study (d25) .

Assay [2] relates to LPS-induced endotoxemia in C57B1/6J female mice. The assay is described as follows: LPS-induced endotoxemia and LPS/D-galactosamine shock. It is filed as in vivo. The note with it: for survival, first 14 hours: LPS 2 mg/kg + D-galactosamine 300 mg/kg i.p., PBS 40%. The procedure: Eight female mice per group received i.p. injections of 5 mg/kg LPS. […] Dexamethasone (3 mg/kg) was administered i.p. at the same time. Blood was collected 1, 2, 4, and 8 hours after LPS injection and circulating TNF-α and IL-6 levels were measured by ELISA (R&D Systems). Asterisk * indicates p<0.01.
Survival data for the first 14 hours is presented.
In sepsis exposure of endothelial cells of all organs to elevated levels of LPS and inflammatory cytokines leads to upregulation of adhesion molecules and chemokines, which results in an increase in the tethering, rolling and transmigration of leukocytes (Pawlinski R. et al. (2004) Blood 103:1342). LPS-induced endotoxemia is a well-characterized model of systemic inflammation and thus can be used to investigate the putative role of SSAO inhibition in these inflammatory mechanisms. Sepsis was induced in C57B1/6J female mice by i.p. administration of 5 mg/kg of LPS. […] Dexamethasone was administered i.p, at a concentration of 3 mg/kg 1 hr prior to disease induction. Blood was drawn from the retroorbital plexus of anesthetized animals and sera was collected and frozen until time of cytokine measurements. IL-1β, TNF-α, and IL-6 concentrations were determined by ELISA using commercial kits (R&D Systems, Minneapolis, Minn.) according to the manufacturer's instructions. […] Data were analyzed with GraphPad Prism software (San Diego, Calif.) by Dunnett's test following analysis of variance. […] 2 mg/kg LPS together with 300 mg/kg D-galactosamine (GalN, Sigma), both dissolved in PBS, were administered to mice by i.p. injection. At the indicated time points animals from the different therapeutic groups received 200 μl of vehicle (PBS) or 30 mg/kg (2-phenylallyl)hydrazine by oral administration.

The mark [3] stands for this setting: 50 mg/kg orally 60 min prior to 5 mg/kg LPS i.p.

`C=C(CNN)c1ccccc1` [Example 2, Hydrochloride]: the “development and severity of disease” value in assay [1] is listed as “clearly had a therapeutic effect”. In assay [2] (setting [3]), the “levels of circulatory IL-6” value is “significantly reduced” and the “levels of circulatory TNF-α” value is “significantly reduced”. Further, the “survival, first 14 hours” value in assay [2] (30 mg/kg oral at 0 and 8 hours (2×)) is listed as 80%. For the same compound, in assay [2] (30 mg/kg oral once (1×)), the “survival, first 14 hours” value was determined as 60%.
